Reference: PubChem BioAssay AID2060487 (Molecular Pharmacology Branch, DTP, NCI, 2025)

Test system: 997537-175-T-J1-PDC complex spheroid viability
Assay: Anticancer human tumor 997537-175-T-J1-PDC patient-derived colon adenocarcinoma cell line growth inhibition [GQUAD]
Conditions: for IC50: curve of first compound; for viability, T/C: stronger effect = lower value
Outline: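 Viability of tumor cells grown as complex spheroids with endothelial and stromal cells, exposed to drug combinations. Top concentration at or near clinical Cmax (else 10 microM), diluted in half-log increments.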

[1] = second compound 0.0316 µM, first compound 0.0316 µM
[2] = second compound 0.0316 µM, first compound 0.1 µM
[3] = second compound 0.0316 µM, first compound 0.316 µM
[4] = second compound 0.0316 µM, first compound 1 µM
[5] = second compound 0.0316 µM, first compound 3.16 µM
[6] = second compound 0.0316 µM, first compound 10 µM
[7] = second compound 0.1 µM, first compound 0.0316 µM
[8] = second compound 0.1 µM, first compound 0.1 µM
[9] = second compound 0.1 µM, first compound 0.316 µM
[10] = second compound 0.1 µM, first compound 1 µM
[11] = second compound 0.1 µM, first compound 3.16 µM
[12] = second compound 0.1 µM, first compound 10 µM
[13] = second compound 0.316 µM, first compound 0.0316 µM
[14] = second compound 0.316 µM, first compound 0.1 µM
[15] = second compound 0.316 µM, first compound 0.316 µM
[16] = second compound 0.316 µM, first compound 1 µM
[17] = second compound 0.316 µM, first compound 3.16 µM
[18] = second compound 0.316 µM, first compound 10 µM
[19] = second compound 1 µM, first compound 0.0316 µM
[20] = second compound 1 µM, first compound 0.1 µM
[21] = second compound 1 µM, first compound 0.316 µM
[22] = second compound 1 µM, first compound 1 µM
[23] = second compound 1 µM, first compound 3.16 µM
[24] = second compound 1 µM, first compound 10 µM
[25] = second compound 3.16 µM, first compound 0.0316 µM
[26] = second compound 3.16 µM, first compound 0.1 µM
[27] = second compound 3.16 µM, first compound 0.316 µM
[28] = second compound 3.16 µM, first compound 1 µM
[29] = second compound 3.16 µM, first compound 3.16 µM
[30] = second compound 3.16 µM, first compound 10 µM
[31] = second compound 10 µM, first compound 0.0316 µM
[32] = second compound 10 µM, first compound 0.1 µM
[33] = second compound 10 µM, first compound 0.316 µM
[34] = second compound 10 µM, first compound 1 µM
[35] = second compound 10 µM, first compound 3.16 µM
[36] = second compound 10 µM, first compound 10 µM
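Note: spheroids exposed to the agents for 7 days.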
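Throughout, for viability, T/C: 100% = DMSO vehicle control viability.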

C#Cc1c(F)ccc2cc(O)cc(-c3ncc4c(N5CC6CCC(C5)N6)nc(OCC56CCCN5CC(F)C6)nc4c3F)c12 (stereo not drawn) + Cc1cnc(CNC(=O)c2c(=O)c3ccc(N4CCCN(C)CC4)nc3n3c2sc2ccccc23)cn1
IC50 (second compound 0.0316 µM): > 10 µM | IC50 (second compound 0.1 µM): > 10 µM | IC50 (second compound 0.316 µM): > 10 µM | IC50 (second compound 1 µM): > 10 µM | IC50 (second compound 3.16 µM): > 10 µM | IC50 (second compound 10 µM): > 10 µM | viability, T/C [1]: 102% | viability, T/C [2]: 85.6% | viability, T/C [3]: 101% | viability, T/C [4]: 74.9% | viability, T/C [5]: 75.7% | viability, T/C [6]: 111% | viability, T/C [7]: 92.2% | viability, T/C [8]: 90.2% | viability, T/C [9]: 101% | viability, T/C [10]: 80.8% | viability, T/C [11]: 104% | viability, T/C [12]: 109% | viability, T/C [13]: 83.4% | viability, T/C [14]: 83.6% | viability, T/C [15]: 92.1% | viability, T/C [16]: 97.3% | viability, T/C [17]: 79.9% | viability, T/C [18]: 108% | viability, T/C [19]: 72.3% | viability, T/C [20]: 101% | viability, T/C [21]: 85% | viability, T/C [22]: 98% | viability, T/C [23]: 105% | viability, T/C [24]: 113% | viability, T/C [25]: 91.2% | viability, T/C [26]: 108% | viability, T/C [27]: 95.2% | viability, T/C [28]: 99.1% | viability, T/C [29]: 96.3% | viability, T/C [30]: 106% | viability, T/C [31]: 77% | viability, T/C [32]: 100% | viability, T/C [33]: 93.1% | viability, T/C [34]: 97.9% | viability, T/C [35]: 127% | viability, T/C [36]: 110%

Nc1ccn(C2OC(CO)C(O)C2(F)F)c(=O)n1 (stereo not drawn) + Cc1cnc(CNC(=O)c2c(=O)c3ccc(N4CCCN(C)CC4)nc3n3c2sc2ccccc23)cn1
IC50 (second compound 0.0316 µM): > 10 µM | IC50 (second compound 0.1 µM): > 10 µM | IC50 (second compound 0.316 µM): > 10 µM | IC50 (second compound 1 µM): > 10 µM | IC50 (second compound 3.16 µM): > 10 µM | IC50 (second compound 10 µM): > 10 µM | viability, T/C [1]: 90.3% | viability, T/C [2]: 99.5% | viability, T/C [3]: 87.3% | viability, T/C [4]: 66.6% | viability, T/C [5]: 66.5% | viability, T/C [6]: 56.4% | viability, T/C [7]: 99.4% | viability, T/C [8]: 84.5% | viability, T/C [9]: 94.7% | viability, T/C [10]: 56.4% | viability, T/C [11]: 89.4% | viability, T/C [12]: 83.8% | viability, T/C [13]: 93.1% | viability, T/C [14]: 108% | viability, T/C [15]: 69.4% | viability, T/C [16]: 76.6% | viability, T/C [17]: 94.6% | viability, T/C [18]: 92.9% | viability, T/C [19]: 89.8% | viability, T/C [20]: 103% | viability, T/C [21]: 102% | viability, T/C [22]: 68.3% | viability, T/C [23]: 104% | viability, T/C [24]: 77.6% | viability, T/C [25]: 68.8% | viability, T/C [26]: 96.6% | viability, T/C [27]: 106% | viability, T/C [28]: 101% | viability, T/C [29]: 85.6% | viability, T/C [30]: 89.3% | viability, T/C [31]: 103% | viability, T/C [32]: 85.9% | viability, T/C [33]: 113% | viability, T/C [34]: 72.9% | viability, T/C [35]: 91% | viability, T/C [36]: 73.7%

COc1ccc([C@@H](O)c2cc(-c3ncnc4cc(N5CCOCC5)ccc34)c(F)cc2Cl)nn1 + Cc1cnc(CNC(=O)c2c(=O)c3ccc(N4CCCN(C)CC4)nc3n3c2sc2ccccc23)cn1
IC50 (second compound 0.0316 µM): > 10 µM | IC50 (second compound 0.1 µM): > 10 µM | IC50 (second compound 0.316 µM): > 10 µM | IC50 (second compound 1 µM): 9.86 µM | IC50 (second compound 3.16 µM): > 10 µM | IC50 (second compound 10 µM): > 10 µM | viability, T/C [1]: 102% | viability, T/C [2]: 93.6% | viability, T/C [3]: 100% | viability, T/C [4]: 63.3% | viability, T/C [5]: 81.1% | viability, T/C [6]: 63.9% | viability, T/C [7]: 97.5% | viability, T/C [8]: 94.7% | viability, T/C [9]: 73.9% | viability, T/C [10]: 84.7% | viability, T/C [11]: 77.2% | viability, T/C [12]: 86.9% | viability, T/C [13]: 87.3% | viability, T/C [14]: 106% | viability, T/C [15]: 107% | viability, T/C [16]: 94.8% | viability, T/C [17]: 113% | viability, T/C [18]: 65.2% | viability, T/C [19]: 82.3% | viability, T/C [20]: 87.5% | viability, T/C [21]: 89.3% | viability, T/C [22]: 87.8% | viability, T/C [23]: 98.1% | viability, T/C [24]: 49.5% | viability, T/C [25]: 81.7% | viability, T/C [26]: 88.8% | viability, T/C [27]: 98.1% | viability, T/C [28]: 107% | viability, T/C [29]: 98.2% | viability, T/C [30]: 71.2% | viability, T/C [31]: 85.5% | viability, T/C [32]: 75.9% | viability, T/C [33]: 86.3% | viability, T/C [34]: 117% | viability, T/C [35]: 86.9% | viability, T/C [36]: 72.8%

C#Cc1c(F)ccc2cc(O)cc(-c3ncc4c(N5CC6CCC(C5)N6)nc(OCC56CCCN5CC(F)C6)nc4c3F)c12 (stereo not drawn) + CN(C)c1ccc(Nc2c3ccc(NC(=O)CCN4CCCC4)cc3nc3cc(NC(=O)CCN4CCCC4)ccc23)cc1
IC50 (second compound 0.0316 µM): > 10 µM | IC50 (second compound 0.1 µM): > 10 µM | IC50 (second compound 0.316 µM): > 10 µM | IC50 (second compound 1 µM): > 10 µM | IC50 (second compound 3.16 µM): > 10 µM | IC50 (second compound 10 µM): > 10 µM | viability, T/C [1]: 102% | viability, T/C [2]: 97.8% | viability, T/C [3]: 98.9% | viability, T/C [4]: 91.1% | viability, T/C [5]: 87.1% | viability, T/C [6]: 107% | viability, T/C [7]: 97.7% | viability, T/C [8]: 89.4% | viability, T/C [9]: 92.6% | viability, T/C [10]: 65.7% | viability, T/C [11]: 110% | viability, T/C [12]: 106% | viability, T/C [13]: 97.2% | viability, T/C [14]: 104% | viability, T/C [15]: 103% | viability, T/C [16]: 83.4% | viability, T/C [17]: 103% | viability, T/C [18]: 105% | viability, T/C [19]: 89.5% | viability, T/C [20]: 93.3% | viability, T/C [21]: 92% | viability, T/C [22]: 82.9% | viability, T/C [23]: 101% | viability, T/C [24]: 108% | viability, T/C [25]: 69.6% | viability, T/C [26]: 97% | viability, T/C [27]: 103% | viability, T/C [28]: 106% | viability, T/C [29]: 106% | viability, T/C [30]: 124% | viability, T/C [31]: 86.8% | viability, T/C [32]: 101% | viability, T/C [33]: 106% | viability, T/C [34]: 106% | viability, T/C [35]: 114% | viability, T/C [36]: 113%
